Some test systems named below: HL-60(TB) leukemia; OVCAR-8 ovarian; SK-MEL-2 melanoma; KM12 colon; SK-OV-3 ovarian; HOP-62 NSCLC; U251 CNS; HOP-92 NSCLC; HCT-116 colon; UO-31 renal; CAKI-1 renal; MDA-N; SF-268 CNS; OVCAR-3 ovarian; CCRF-CEM leukemia; MDA-MB-231 breast.
What all share (assay): growth of human tumour cells (NCI), 48 h

This passage reports TGI results from PubChem BioAssay (NCI).

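All cell lines were grown in 96-well plates and treated with compound for 48 hours. TGI marks complete inhibition of growth.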

As to `CC(=O)NC1C(OCc2ccccc2)OC(CO)C(O)C1OCC(=O)NC(C)C(=O)NC(CCC(=O)OCCNC(=O)c1cccc2cc3ccccc3nc12)C(N)=O` (stereo not drawn), the TGI amounted to 57.7 µM with HL-60(TB) leukemia; 39.4 µM with OVCAR-8 ovarian; 70.9 µM in the assay on SK-MEL-2 melanoma; 56.3 µM with KM12 colon; 58.2 µM with SK-OV-3 ovarian; 68.9 µM in the assay with HOP-62 NSCLC. Also, the TGI was 53.5 µM in the assay with U251 CNS; 59 µM in the assay with HOP-92 NSCLC; 31.8 µM in the assay on HCT-116 colon; 36.2 µM in the assay on UO-31 renal; 30.2 µM in the assay with CAKI-1 renal; over 100 µM in the assay with MDA-N. Besides, the TGI in the assay on SF-268 CNS came out at 67 µM; in the assay with OVCAR-3 ovarian, 43.3 µM.
`O=c1cc2oc3ccc4ccccc4c3cc-2c(=O)[nH]1`: the TGI turned out to be 4.18 µM with HL-60(TB) leukemia; 4.53 µM with OVCAR-8 ovarian; 31.6 µM in the assay with SK-MEL-2 melanoma; 42.7 µM in the assay with KM12 colon; 34.5 µM with SK-OV-3 ovarian; 25.2 µM with HOP-62 NSCLC. The TGI with U251 CNS was 22 µM; with HCT-116 colon it was 31.2 µM; in the assay on CCRF-CEM leukemia it was 2.6 µM; with UO-31 renal, 23.5 µM; in the assay on CAKI-1 renal it was 28.8 µM; in the assay with MDA-N, 23.8 µM. The values for the TGI in the assay with SF-268 CNS and with OVCAR-3 ovarian were 28.4 µM and 24.4 µM, respectively.
Consider `O=c1[nH]ncc2[nH]c3c(c12)CCCc1ccccc1-3`, for which the TGI in the assay with HL-60(TB) leukemia, in the assay with OVCAR-8 ovarian, in the assay with SK-MEL-2 melanoma, with KM12 colon, in the assay with SK-OV-3 ovarian and in the assay on HOP-62 NSCLC was over 100 µM in each case. Further, the TGI in the assay on U251 CNS, with HOP-92 NSCLC, in the assay with HCT-116 colon, with CCRF-CEM leukemia, in the assay with UO-31 renal and in the assay with CAKI-1 renal was over 100 µM each time. The TGI was 98.8 µM in the assay on MDA-N, over 100 µM with SF-268 CNS and over 100 µM in the assay on OVCAR-3 ovarian.
For `CCOC(=O)C1=C(C)N(Cc2ccc(Cl)cc2Cl)C2(O)C(OC)CC(=O)C3C(=O)N(c4ccccc4)C(=O)C132` (stereo not drawn), the TGI is 6.9 µM in the assay with HL-60(TB) leukemia; 6.19 µM in the assay on OVCAR-8 ovarian; 7.01 µM with SK-MEL-2 melanoma; 9.03 µM with KM12 colon; 2.51 µM in the assay with HOP-62 NSCLC; 3.69 µM with U251 CNS. The TGI with HOP-92 NSCLC was found to be 7.95 µM; with HCT-116 colon, 4.12 µM; in the assay with CCRF-CEM leukemia, 4.11 µM; with MDA-MB-231 breast, 7.16 µM; in the assay on UO-31 renal it was 18.7 µM; in the assay on CAKI-1 renal, 19.5 µM. For the same compound, the values for the TGI in the assay on SF-268 CNS and with OVCAR-3 ovarian were 14.3 µM and 3.44 µM, respectively.
On to `Cc1nnc2sc(-c3ccc(N)cc3)nn12`, for which the TGI in the assay with HL-60(TB) leukemia, in the assay on OVCAR-8 ovarian, with SK-MEL-2 melanoma, in the assay on KM12 colon, in the assay with SK-OV-3 ovarian and with HOP-62 NSCLC was over 100 µM throughout. Further, the TGI in the assay with HOP-92 NSCLC, with HCT-116 colon, with CCRF-CEM leukemia, in the assay on MDA-MB-231 breast, with UO-31 renal and in the assay with CAKI-1 renal was over 100 µM each time. The TGI with SF-268 CNS and with OVCAR-3 ovarian was over 100 µM in each case.
On to `Cc1ccccc1N=Nc1ccc(N=Nc2c(O)ccc3cc(S(=O)(=O)O)cc(S(=O)(=O)O)c23)c(C)c1`, for which the TGI with HL-60(TB) leukemia, in the assay with OVCAR-8 ovarian, in the assay with SK-MEL-2 melanoma, in the assay on KM12 colon, in the assay on SK-OV-3 ovarian and with HOP-62 NSCLC was over 100 µM in each case. Besides, the TGI in the assay on U251 CNS, with HOP-92 NSCLC, with HCT-116 colon, in the assay on CCRF-CEM leukemia, in the assay with MDA-MB-231 breast and with UO-31 renal was over 100 µM throughout. Moreover, the TGI with CAKI-1 renal, with SF-268 CNS and with OVCAR-3 ovarian was over 100 µM each time.
As to `N[C@H]1CCc2c1nc1c(c2-c2ccccc2)CC[C@@H]1N`, the TGI is 46.4 µM in the assay on HL-60(TB) leukemia; over 100 µM in the assay on OVCAR-8 ovarian; 40.1 µM with SK-MEL-2 melanoma; over 100 µM in the assay with KM12 colon; over 100 µM with HOP-62 NSCLC; 55.3 µM in the assay on U251 CNS. Also, the TGI in the assay with HOP-92 NSCLC was over 100 µM; in the assay on HCT-116 colon, 45.6 µM; in the assay with CCRF-CEM leukemia, 40.7 µM; in the assay with MDA-MB-231 breast it was 66 µM; in the assay on CAKI-1 renal, 33.7 µM; in the assay on SF-268 CNS, 59.8 µM.
On to `COc1ccc(/C=C/c2cc(=O)cc(/C=C/c3ccc(OC)c(O)c3)o2)cc1O`, for which the TGI in the assay with HL-60(TB) leukemia was 5.02 µM; with OVCAR-8 ovarian, 10.1 µM; in the assay on SK-MEL-2 melanoma, 7.99 µM; with KM12 colon, 4.26 µM; with SK-OV-3 ovarian, 21.7 µM; with HOP-62 NSCLC it was 12.2 µM. Besides, the TGI is 4.21 µM in the assay with U251 CNS; 13.5 µM in the assay with HOP-92 NSCLC; 7 µM in the assay with HCT-116 colon; 5.91 µM in the assay with CCRF-CEM leukemia; 5.73 µM in the assay on MDA-MB-231 breast; 11.5 µM in the assay on UO-31 renal. Moreover, the figures for the TGI in the assay on CAKI-1 renal, in the assay with SF-268 CNS and with OVCAR-3 ovarian were 12 µM, over 75.9 µM and 6.51 µM, respectively.
